Source: patent publication US20090275557A1, “Novel Composition for Treatment of Diseases Related to Activated Lymphocytes” (Immune Control, Inc., priority 2008, published 2009)
Several values for one entry are separate records, joined by “and”; a condition that tells them apart may be missing. Equal values may be shown once. Read-outs that look alike come from different tables or passages of the source.

Assays:
[1] = system: bovine type 2 collagen immunized rats; assay: Collagen-induced arthritis assay, IP injection protocol, ankle diameter; type: in vivo, rat
Protocol: Female Lewis rats (CR) weighing between 125-200 g were immunized with bovine type 2 collagen, 2 mg/ml in a 1:1 solution of 0.01 N acetic acid and Freund's incomplete adjuvant (“FIA”). A 0.1 ml portion of the collagen solution was injected id (intradermally) at three sites on the rat. Rats were immunized with the collagen solution on days 1 and 6 of the study. […] On day 9 (study day “0”), baseline ankle diameters were measured. On days 10-15 (study days 1-6), the rats were then treated, via oral gavage, with either 1, 5, or 25 mg/kg of one of ICI-1259 or ICI-1260, prepared as described below. Ankle diameter measurements were measured on each of days 10-16.
Compounds ICI-1259, ICI-1260, ICI-1505, and ICI-1506 were administered via IP injection to treat collagent-induced arthritis in a variation of the experiments described above. Under the protocol of the IP injection experiments, animal were immunized with Bovine Type 2 collagen as previously described. […] On day 9 (study day “0”), baseline ankle diameters were measured. On days 10-12 (study days 1-3), the rats were then treated once per day, via IP injection, with one of ICI-1259, ICI-1260, ICI-1505, or ICI-1506 at 10 mg/kg. Ankle diameter in the immunized rodents was measured on each of days 10-13 as well as on day 14. […] See FIG. 18 (ICI-1259, ICI-1260, and ICI-1505) and FIG. 19 (ICI-1506).
In a separate study, using the IP injection protocol described above, ICI-1259 and 1260 were each dosed at 2 mg/kg and 0.4 mg/kg.

[2] = Pharmacokinetic study, oral gavage in fasted male Sprague-Dawley rats; type: in vivo, rat
Protocol: ICI-1259 and ICI-1260 were supplied as powders and stored frozen until used. Dosing solutions in phosphate buffered saline were prepared at 1 mg/ml. These solutions were then evaluated in fasted male Sprague-Dawley rats. The rats were fitted with a jugular vein cannula for blood sampling. Rats were also fitted with an additional jugular vein cannula, or intradudodenal cannula as needed. Rats were given a commercial rodent diet ad libitum prior to study initiation. Food was then withheld from the animals for a minimum of twelve hours prior to dosing, until four hours postdose when food was returned. Water was supplied ad libitum. Three rats were used in each study, unless otherwise indicated.
For both ICI-1259 and ICI-1260, rats were given a 10 mg/kg dose from a 1 mg/ml solution. The appropriate volume of solution was given as a single bolus dose at time zero on the day of dosing. Blood samples were taken at predose, 5 minutes after dosing, 10 minutes after dosing, 15 minutes after dosing, 30 minutes after dosing, 1 hour after dosing, 2 hours after dosing, 4 hours after dosing, 6 hours after dosing, and 8 hours after dosing.

[3] = system: 5-HT7; assay: 5-HT receptor binding, displacement of tritiated ligands; conditions: at 10 μM
Protocol: (§1) 5-HT receptor binding was measured using membrane preparations of brain regions known to be enriched with given 5-HT receptor subtype(s). The assay subsequently measured the displacement of tritiated ligands known to bind to a given 5-HT subtype.
(§2) A receptor binding assay was performed for ICI-1259 and ICI-1260 showing that at 10 μM, these compounds bind receptors 5-HT1A(h), 5-HT1B, 5-HT1D(h), 5-HT2A, 5-HT2A(h), 5-HT2B, 5-HT2C, 5-HT3,5-HT3(h), 5-HT4, 5-HT5A(h), 5-HT6, and 5-HT7.

[4] = system: 5-HT1B; assay: as above; conditions: at 10 μM
Protocol: as §1, §2

[5] = biological target: T1, 5-HT1A(h) (Homo sapiens, UniProt P08908); assay: as above; conditions: at 10 μM
T1 construct: from tissue
T1 sequence (P08908 1-422): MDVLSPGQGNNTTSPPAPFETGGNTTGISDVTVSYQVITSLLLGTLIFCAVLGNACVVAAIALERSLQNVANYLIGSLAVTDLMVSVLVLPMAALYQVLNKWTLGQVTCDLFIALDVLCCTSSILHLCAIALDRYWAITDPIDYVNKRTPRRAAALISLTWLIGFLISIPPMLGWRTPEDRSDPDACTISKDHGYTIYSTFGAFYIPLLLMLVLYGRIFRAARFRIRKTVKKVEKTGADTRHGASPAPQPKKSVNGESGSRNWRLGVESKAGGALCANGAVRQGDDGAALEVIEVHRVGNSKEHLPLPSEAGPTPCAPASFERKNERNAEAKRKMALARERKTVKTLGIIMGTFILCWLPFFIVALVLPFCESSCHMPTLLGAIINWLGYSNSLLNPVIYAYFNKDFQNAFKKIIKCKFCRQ
Protocol: as §1, §2

[6] = system: 5-HT4; assay: as above; conditions: at 10 μM
Protocol: as §1, §2

[7] = system: 5-HT3; assay: as above; conditions: at 10 μM
Protocol: as §1, §2

[8] = biological target: T2, 5-HT2A(h) (Homo sapiens, UniProt P28223); assay: as above; conditions: at 10 μM
T2 construct: from tissue
Protocol: as §1, §2

[9] = system: 5-HT6; assay: as above; conditions: at 10 μM
Protocol: as §1, §2

[10] = system: 5-HT2A; assay: as above; conditions: at 10 μM
Protocol: as §1, §2

[11] = biological target: T3, 5-HT1D(h) (Homo sapiens, UniProt P28221); assay: as above; conditions: at 10 μM
T3 construct: from tissue
Protocol: as §1, §2

[12] = individual rats, oral gavage 10 mg/kg, 10 mg/kg
[13] = male, Sprague-Dawley, rat, plasma, po, 10 mg/kg, individual rats, oral gavage 10 mg/kg
[14] = male, Sprague-Dawley, rat, plasma, po, 10 mg/kg, mean, oral gavage 10 mg/kg

T2 sequence (P28223 whole entry): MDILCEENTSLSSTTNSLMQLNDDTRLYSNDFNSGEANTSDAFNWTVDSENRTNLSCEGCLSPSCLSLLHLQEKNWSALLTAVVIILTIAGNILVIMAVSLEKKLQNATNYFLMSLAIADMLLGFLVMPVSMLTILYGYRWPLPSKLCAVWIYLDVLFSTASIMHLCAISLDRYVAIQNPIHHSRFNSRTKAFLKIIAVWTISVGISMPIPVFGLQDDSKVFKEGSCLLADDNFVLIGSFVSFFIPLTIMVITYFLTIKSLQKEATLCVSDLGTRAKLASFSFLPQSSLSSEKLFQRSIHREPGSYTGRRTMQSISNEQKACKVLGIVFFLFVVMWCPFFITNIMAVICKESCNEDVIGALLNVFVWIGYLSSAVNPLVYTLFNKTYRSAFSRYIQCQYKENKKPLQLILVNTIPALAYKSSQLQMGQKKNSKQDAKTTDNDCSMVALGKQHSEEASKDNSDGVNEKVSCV
T3 sequence (P28221 whole entry): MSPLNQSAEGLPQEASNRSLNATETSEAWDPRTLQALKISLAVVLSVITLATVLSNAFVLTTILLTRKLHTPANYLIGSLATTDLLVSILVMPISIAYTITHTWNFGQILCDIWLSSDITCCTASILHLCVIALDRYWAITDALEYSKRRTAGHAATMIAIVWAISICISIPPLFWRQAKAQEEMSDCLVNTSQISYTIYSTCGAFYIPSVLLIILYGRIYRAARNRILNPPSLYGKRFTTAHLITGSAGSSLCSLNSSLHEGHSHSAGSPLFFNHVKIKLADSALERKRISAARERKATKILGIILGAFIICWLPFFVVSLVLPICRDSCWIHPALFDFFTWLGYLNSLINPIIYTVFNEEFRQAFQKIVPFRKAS

NCC(=O)NCCCN1CCC(CCCN2c3ccccc3Sc3ccc(C(F)(F)F)cc32)CC1 [ICI-1260, 2-amino-N-(3-(4-(3-(2-(trifluoromethyl)-10H-phenothiazin-10-yl)propyl)piperidin-1-yl)propyl)acetamide]
reduction in ankle swelling (ankle diameter) ([1]; IP injection 0.4 mg/kg): Statistically significant results were only observed for ICI-1260 at 2 mg/kg
reduction in ankle swelling (ankle diameter) ([1]; IP injection 2 mg/kg, study days 3 and 4): Statistically significant results
reduction in ankle swelling (ankle diameter) ([1]; IP injection 10 mg/kg once per day, study days 1-3, observed on study days 2-4): statistically significant results were observed
dose absorbed after oral dosing ([2]; indirectly indicated by the average bioavailability, oral 10 mg/kg): approximately 26%
AUClast [2, 12]: 84.9 ng·h/mL and 95.9 ng·h/mL
Cmax [2, 12]: 22.2 ng/mL and 25.9 ng/mL
Dose Normalized AUClast [2, 12]: 11.2 kg·ng·h/mL/mg and 8.49 kg·ng·h/mL/mg and 9.59 kg·ng·h/mL/mg
Dose Normalized AUC∞ [2, 12]: 9.40 kg·ng·h/mL/mg and 11.1 kg·ng·h/mL/mg
Tmax [2, 12]: 1.0 h
t1/2 [2, 12]: 2.6 h
Plasma concentration ([2]; individual rats, oral gavage 10 mg/kg, 0.083 hr, BLOQ = below limit of quantitation (1 ng/mL), 10 mg/kg): 1.33 ng/mL and BLOQ
Plasma concentration ([2]; individual rats, oral gavage 10 mg/kg, 0.25 hr, 10 mg/kg): 9.32 ng/mL and 2.68 ng/mL and 7.31 ng/mL
Plasma concentration ([2]; individual rats, oral gavage 10 mg/kg, 0.50 hr, 10 mg/kg): 8.00 ng/mL and 3.02 ng/mL and 6.16 ng/mL
Plasma concentration ([2]; individual rats, oral gavage 10 mg/kg, 1.0 hr, 10 mg/kg): 5.33 ng/mL and 5.38 ng/mL and 25.9 ng/mL
Plasma concentration ([2]; individual rats, oral gavage 10 mg/kg, 2.0 hr, 10 mg/kg): 22.2 ng/mL and 24.0 ng/mL
Plasma concentration ([2]; individual rats, oral gavage 10 mg/kg, 4.0 hr, 10 mg/kg): 4.89 ng/mL and 11.7 ng/mL and 7.39 ng/mL
Plasma concentration ([2]; individual rats, oral gavage 10 mg/kg, 6.0 hr, 10 mg/kg): 19.8 ng/mL and 9.71 ng/mL and 8.98 ng/mL
Plasma concentration ([2]; individual rats, oral gavage 10 mg/kg, 8.0 hr, 10 mg/kg): 2.87 ng/mL and 3.93 ng/mL
bioavailability ([2]; individual rats, oral gavage 10 mg/kg, dose normalized AUC divided by average intravenous AUC, 10 mg/kg): 9.0%
AUC∞ ([2]; individual rats, oral gavage 10 mg/kg, extrapolated to infinity, 10 mg/kg): 111 ng·h/mL
AUC(0-t) [2, 13]: 112 ng·h/mL
half-life [2, 13]: 2.2 h
concentration at 0.083 hr ([2]; male, Sprague-Dawley, rat, plasma, po, 10 mg/kg, individual rats, oral gavage 10 mg/kg, 0.083 hr, BLOQ = below limit of quantitation (1 ng/mL)): 1.48 ng/mL
concentration at 2 hr ([2]; male, Sprague-Dawley, rat, plasma, po, 10 mg/kg, individual rats, oral gavage 10 mg/kg, 2.0 hr): 33.8 ng/mL
concentration at 8 hr ([2]; male, Sprague-Dawley, rat, plasma, po, 10 mg/kg, individual rats, oral gavage 10 mg/kg, 8.0 hr): 3.13 ng/mL
bioavailability ([2]; male, Sprague-Dawley, rat, plasma, po, 10 mg/kg, individual rats, oral gavage 10 mg/kg, dose normalized AUC divided by average intravenous AUC, read-out: Bioavailability): 13%
AUC(0-inf) ([2]; male, Sprague-Dawley, rat, plasma, po, 10 mg/kg, individual rats, oral gavage 10 mg/kg, extrapolated to infinity): 94 ng·h/mL
Cmax ([2]; male, Sprague-Dawley, rat, plasma, po, 10 mg/kg, individual rats, oral gavage 10 mg/kg, read-out: Cmax): 33.8 ng/mL
Tmax ([2]; male, Sprague-Dawley, rat, plasma, po, 10 mg/kg, individual rats, oral gavage 10 mg/kg, read-out: tmax): 2 h
bioavailability ([2]; male, Sprague-Dawley, rat, plasma, po, 10 mg/kg, mean (average), oral gavage 10 mg/kg, read-out: Bioavailability): 11%
AUC(0-t) [2, 14]: 97.7 ng·h/mL
half-life [2, 14]: 2.4 h
concentration at 0.083 hr ([2]; male, Sprague-Dawley, rat, plasma, po, 10 mg/kg, mean, oral gavage 10 mg/kg, 0.083 hr): 1.41 ng/mL
concentration at 0.25 hr ([2]; male, Sprague-Dawley, rat, plasma, po, 10 mg/kg, mean, oral gavage 10 mg/kg, 0.25 hr): 6.44 ng/mL
concentration at 0.5 hr ([2]; male, Sprague-Dawley, rat, plasma, po, 10 mg/kg, mean, oral gavage 10 mg/kg, 0.50 hr): 5.73 ng/mL
concentration at 1 hr ([2]; male, Sprague-Dawley, rat, plasma, po, 10 mg/kg, mean, oral gavage 10 mg/kg, 1.0 hr): 12.2 ng/mL
concentration at 2 hr ([2]; male, Sprague-Dawley, rat, plasma, po, 10 mg/kg, mean, oral gavage 10 mg/kg, 2.0 hr): 26.7 ng/mL
concentration at 4 hr ([2]; male, Sprague-Dawley, rat, plasma, po, 10 mg/kg, mean, oral gavage 10 mg/kg, 4.0 hr): 7.99 ng/mL
concentration at 6 hr ([2]; male, Sprague-Dawley, rat, plasma, po, 10 mg/kg, mean, oral gavage 10 mg/kg, 6.0 hr): 12.8 ng/mL
concentration at 8 hr ([2]; male, Sprague-Dawley, rat, plasma, po, 10 mg/kg, mean, oral gavage 10 mg/kg, 8.0 hr): 3.31 ng/mL
AUC(0-inf) ([2]; male, Sprague-Dawley, rat, plasma, po, 10 mg/kg, mean, oral gavage 10 mg/kg, extrapolated to infinity): 102 ng·h/mL
Cmax ([2]; male, Sprague-Dawley, rat, plasma, po, 10 mg/kg, mean, oral gavage 10 mg/kg, read-out: Cmax): 27.3 ng/mL
Tmax ([2]; male, Sprague-Dawley, rat, plasma, po, 10 mg/kg, mean, oral gavage 10 mg/kg, read-out: tmax): 1.7 h
Dose Normalized AUClast ([2]; mean, oral gavage 10 mg/kg): 9.77 kg·ng·h/mL/mg
Dose Normalized AUC∞ ([2]; mean, oral gavage 10 mg/kg): 10.2 kg·ng·h/mL/mg
receptor binding [3]: bind
receptor binding [4]: bind
receptor binding [5]: bind
receptor binding [6]: bind
receptor binding [7]: bind
receptor binding [8]: bind
receptor binding [9]: bind
receptor binding [10]: bind
receptor binding [11]: bind
